In ChEMBL document CHEMBL3885881, “DrugMatrix”:

Species: Rattus norvegicus
Experiment: DrugMatrix - Regimen: Daily Repeat
Format: toxicity, organism-based, Sprague-Dawley
Set-up: regimen Daily Repeat, gender Male, age 6-8 weeks
Settings: in vivo, po, 56 mg/kg, route oral GAVAGE, […]
[1] = 72 h, tissue Plasma, dose level Low, time 3 day
[2] = 120 h, tissue Blood, dose level High, time 5 day
[3] = 120 h, tissue Blood, dose level Low, time 5 day
[4] = 120 h, tissue Plasma, dose level High, time 5 day
[5] = 120 h, tissue Plasma, dose level Low, time 5 day
[6] = tissue Blood, dose level High, time 28 day
[7] = tissue Plasma, dose level High, time 28 day

## NC[C@@H]1O[C@H](O[C@H]2[C@@H](O)[C@H](O[C@@H]3[C@@H](O)[C@H](N)C[C@H](N)[C@H]3O[C@H]3O[C@H](CN)[C@@H](O)[C@H](O)[C@H]3N)O[C@@H]2CO)[C@H](N)[C@@H](O)[C@@H]1O [FRAMYCETIN]
[1]
  CREATININE: 0.19 mg/dL
  GLUCOSE: 156.33 mg/dL
  LACTATE DEHYDROGENASE: 107.33 u/L
  LIPASE: 10.33 u/L
  PHOSPHORUS: 10.8 mg/dL
  POTASSIUM: 5.83 MEQ/L
  SODIUM: 143.17 MEQ/L
  TOTAL BILIRUBIN: 0.1 mg/dL
  TOTAL PROTEIN: 5.97 G/DL
  URIC ACID: 0.4 mg/dL
[2]
  BASOPHIL: 0.36%
  EOSINOPHIL: 0.6%
  ERYTHROCYTE COUNT: 7.45 x10E6/uL
  HEMATOCRIT: 49.44%
  HEMOGLOBIN: 15.6 G/DL
  LEUKOCYTE COUNT: 6.84 x10E3/uL
  LYMPHOCYTE: 82.08%
  MEAN CORPUSCULAR HEMOGLOBIN: 20.94 pg
  MEAN CORPUSCULAR HEMOGLOBIN CONCENTRATION: 31.58 G/DL
  MEAN CORPUSCULAR VOLUME: 66.34 fL
  MONOCYTE: 1.68%
  NEUTROPHIL: 14.3%
  PLATELET COUNT: 1274.6 x10E3/uL
[3]
  ABSOLUTE BASOPHIL: 0 CELLS/uL
  ABSOLUTE EOSINOPHIL: 0 CELLS/uL
  ABSOLUTE LYMPHOCYTE: 7805 CELLS/uL
  ABSOLUTE MONOCYTE: 76.67 CELLS/uL
  ABSOLUTE SEGMENTED NEUTROPHIL: 785 CELLS/uL
  BASOPHIL: 0%
  EOSINOPHIL: 0%
  ERYTHROCYTE COUNT: 5.67 x10E6/uL
  HEMATOCRIT: 34.13%
  HEMOGLOBIN: 13.3 G/DL
  LEUKOCYTE COUNT: 8.67 x10E3/uL
  LYMPHOCYTE: 89.33%
  MEAN CORPUSCULAR HEMOGLOBIN: 23.47 pg
  MEAN CORPUSCULAR HEMOGLOBIN CONCENTRATION: 38.97 G/DL
  MEAN CORPUSCULAR VOLUME: 60.2 fL
  MONOCYTE: 1%
  NEUTROPHIL: 9.67%
  NUCLEATED RED BLOOD CELLS: 0 /100WBC
  PLATELET COUNT: 1077 x10E3/uL
[4]
  ALANINE AMINOTRANSFERASE: 29 u/L
  ALBUMIN: 3.74 G/DL
  ALKALINE PHOSPHATASE: 336 u/L
  ASPARTATE AMINOTRANSFERASE: 73.8 u/L
  BLOOD UREA NITROGEN: 6.6 mg/dL
  CHLORIDE: 109.6 MEQ/L
  CHOLESTEROL: 60.6 mg/dL
  CREATINE PHOSPHOKINASE: 307 u/L
  CREATININE: 0.28 mg/dL
  GLUCOSE: 128.6 mg/dL
  PHOSPHORUS: 13.88 mg/dL
  POTASSIUM: 6.96 MEQ/L
  SODIUM: 151.8 MEQ/L
  TOTAL BILIRUBIN: 0.16 mg/dL
  TOTAL PROTEIN: 6.22 G/DL
[5]
  ALANINE AMINOTRANSFERASE: 68.67 u/L
  ALBUMIN: 4.03 G/DL
  ALKALINE PHOSPHATASE: 434 u/L
  ASPARTATE AMINOTRANSFERASE: 94.67 u/L
  BLOOD UREA NITROGEN: 12 mg/dL
  CARBON DIOXIDE: 26.33 mmol/L
  CHLORIDE: 104 MEQ/L
  CHOLESTEROL: 74.67 mg/dL
  CREATINE PHOSPHOKINASE: 481.67 u/L
  CREATININE: 0.23 mg/dL
  GLUCOSE: 156.33 mg/dL
  LACTATE DEHYDROGENASE: 224 u/L
  LIPASE: 10.33 u/L
  PHOSPHORUS: 10.57 mg/dL
  POTASSIUM: 6.71 MEQ/L
  SODIUM: 148.83 MEQ/L
  TOTAL BILIRUBIN: 0.17 mg/dL
  TOTAL PROTEIN: 6.03 G/DL
  URIC ACID: 1.13 mg/dL
[6]
  BASOPHIL: 0.48%
  EOSINOPHIL: 0.51%
  ERYTHROCYTE COUNT: 8.01 x10E6/uL
  HEMATOCRIT: 48.92%
  HEMOGLOBIN: 15.88 G/DL
  LEUKOCYTE COUNT: 12.82 x10E3/uL
  LYMPHOCYTE: 83.46%
  MEAN CORPUSCULAR HEMOGLOBIN: 19.85 pg
  MEAN CORPUSCULAR HEMOGLOBIN CONCENTRATION: 32.47 G/DL
  MEAN CORPUSCULAR VOLUME: 61.12 fL
  MONOCYTE: 1.54%
  NEUTROPHIL: 12.95%
  PLATELET COUNT: 1208.1 x10E3/uL
[7]
  ALANINE AMINOTRANSFERASE: 26.9 u/L
  ALBUMIN: 3.85 G/DL
  ALKALINE PHOSPHATASE: 200.9 u/L
  ASPARTATE AMINOTRANSFERASE: 62.4 u/L
  BLOOD UREA NITROGEN: 11 mg/dL
  CHLORIDE: 107.1 MEQ/L
  CHOLESTEROL: 54.5 mg/dL
  CREATINE PHOSPHOKINASE: 177.2 u/L
  CREATININE: 0.38 mg/dL
  GLUCOSE: 135.2 mg/dL
  PHOSPHORUS: 11.16 mg/dL
  POTASSIUM: 6.5 MEQ/L
  SODIUM: 151.5 MEQ/L
  TOTAL BILIRUBIN: 0.22 mg/dL
  TOTAL PROTEIN: 6.52 G/DL
